Experimental data as given in the kinase profiling compilation of Christmann-Franck et al. (2016).

Tests used:
Assay in all cases: KINOMEscan competition binding
Settings in all cases: compound 10.0 µM
CSNK1G3 (human) = CSNK1G3 (human) (UniProt Q9Y6M4)
PAK7 (human) = PAK7 (human) (UniProt Q9P286)
STK32C (human) = STK32C (human) (UniProt Q86UX6)
AURKC (human) = AURKC (human) (UniProt Q9UQB9)
MERTK (human) = MERTK (human) (UniProt Q12866)
CLK3 (human) = CLK3 (human) (UniProt P49761)
LIMK1 (human) = LIMK1 (human) (UniProt P53667)
CAMK2D (human) = CAMK2D (human) (UniProt Q13557)
CLK1 (human) = CLK1 (human) (UniProt P49759)
STK4 (human) = STK4 (human) (UniProt Q13043)
PIK3CD (human) = PIK3CD (human) (UniProt O00329)
SLK (human) = SLK (human) (UniProt Q9H2G2)
RPS6KA4 KD2 (human) = RPS6KA4 KD2 (human) (UniProt O75676)
MYLK2 (human) = MYLK2 (human) (UniProt Q9H1R3)
CAMK1D (human) = CAMK1D (human) (UniProt Q8IU85)
CSNK1D (human) = CSNK1D (human) (UniProt P48730)
FYN (human) = FYN (human) (UniProt P06241)
LYN (human) = LYN (human) (UniProt P07948)
ADCK3 (human) = ADCK3 (human) (UniProt Q8NI60)
PDGFRA (human) = PDGFRA (human) (UniProt P16234)
MAPKAPK5 (human) = MAPKAPK5 (human) (UniProt Q8IW41)
CSK (human) = CSK (human) (UniProt P41240)
CAMK2G (human) = CAMK2G (human) (UniProt Q13555)
NEK9 (human) = NEK9 (human) (UniProt Q8TD19)
INSRR (human) = INSRR (human) (UniProt P14616)
EPHA8 (human) = EPHA8 (human) (UniProt P29322)
CDK9 (human) = CDK9 (human) (UniProt P50750)
NUAK1 (human) = NUAK1 (human) (UniProt O60285)
MAPK11 (human) = MAPK11 (human) (UniProt Q15759)
CSNK1G2 (human) = CSNK1G2 (human) (UniProt P78368)
MYO3B (human) = MYO3B (human) (UniProt Q8WXR4)
MAPK12 (human) = MAPK12 (human) (UniProt P53778)
DCLK3 (human) = DCLK3 (human) (UniProt Q9C098)
MAPK8 (human) = MAPK8 (human) (UniProt P45983)
MELK (human) = MELK (human) (UniProt Q14680)
MARK3 (human) = MARK3 (human) (UniProt P27448)
TLK2 (human) = TLK2 (human) (UniProt Q86UE8)
BMPR2 (human) = BMPR2 (human) (UniProt Q13873)
INSR (human) = INSR (human) (UniProt P06213)
PAK6 (human) = PAK6 (human) (UniProt Q9NQU5)

Chain of MARK3 (human) (P27448 whole entry, looked up): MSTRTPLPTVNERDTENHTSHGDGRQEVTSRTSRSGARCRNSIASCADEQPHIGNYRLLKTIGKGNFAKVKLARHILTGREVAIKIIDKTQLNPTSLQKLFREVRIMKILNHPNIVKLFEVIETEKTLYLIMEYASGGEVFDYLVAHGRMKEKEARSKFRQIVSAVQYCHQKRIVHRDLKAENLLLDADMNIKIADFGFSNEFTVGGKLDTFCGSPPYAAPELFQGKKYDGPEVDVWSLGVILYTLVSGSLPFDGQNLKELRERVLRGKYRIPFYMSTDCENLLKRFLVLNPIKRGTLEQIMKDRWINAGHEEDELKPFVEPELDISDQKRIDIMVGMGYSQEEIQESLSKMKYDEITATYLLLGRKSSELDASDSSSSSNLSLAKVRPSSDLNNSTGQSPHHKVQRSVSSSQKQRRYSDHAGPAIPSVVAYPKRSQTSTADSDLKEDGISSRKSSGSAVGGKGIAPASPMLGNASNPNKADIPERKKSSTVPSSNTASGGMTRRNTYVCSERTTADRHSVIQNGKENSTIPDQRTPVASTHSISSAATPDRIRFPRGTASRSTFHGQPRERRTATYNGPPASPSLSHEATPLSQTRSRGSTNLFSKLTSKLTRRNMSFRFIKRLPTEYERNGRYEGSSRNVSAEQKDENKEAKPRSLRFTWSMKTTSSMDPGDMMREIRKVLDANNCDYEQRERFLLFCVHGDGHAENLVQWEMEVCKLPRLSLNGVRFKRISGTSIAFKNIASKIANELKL
Chain of LIMK1 (human) (P53667 whole entry, looked up): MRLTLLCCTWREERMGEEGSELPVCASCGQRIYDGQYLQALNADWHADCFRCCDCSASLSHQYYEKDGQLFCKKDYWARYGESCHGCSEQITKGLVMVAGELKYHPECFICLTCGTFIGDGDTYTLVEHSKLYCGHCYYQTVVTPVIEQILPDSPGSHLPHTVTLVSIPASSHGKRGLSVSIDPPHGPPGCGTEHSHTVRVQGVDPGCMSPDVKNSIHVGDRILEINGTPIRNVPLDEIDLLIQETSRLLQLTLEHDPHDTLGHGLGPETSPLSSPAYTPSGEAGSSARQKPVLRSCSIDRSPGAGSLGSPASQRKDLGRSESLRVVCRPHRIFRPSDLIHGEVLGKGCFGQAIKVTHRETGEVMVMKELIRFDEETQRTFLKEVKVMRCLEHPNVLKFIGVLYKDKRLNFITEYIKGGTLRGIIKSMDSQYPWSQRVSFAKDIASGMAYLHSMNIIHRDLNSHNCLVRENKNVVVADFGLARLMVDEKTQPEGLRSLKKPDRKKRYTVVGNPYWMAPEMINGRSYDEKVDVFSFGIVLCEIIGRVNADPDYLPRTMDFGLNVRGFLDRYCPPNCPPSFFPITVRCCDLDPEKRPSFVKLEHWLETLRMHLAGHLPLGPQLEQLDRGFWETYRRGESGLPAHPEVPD
Chain of SLK (human) (Q9H2G2 whole entry, looked up): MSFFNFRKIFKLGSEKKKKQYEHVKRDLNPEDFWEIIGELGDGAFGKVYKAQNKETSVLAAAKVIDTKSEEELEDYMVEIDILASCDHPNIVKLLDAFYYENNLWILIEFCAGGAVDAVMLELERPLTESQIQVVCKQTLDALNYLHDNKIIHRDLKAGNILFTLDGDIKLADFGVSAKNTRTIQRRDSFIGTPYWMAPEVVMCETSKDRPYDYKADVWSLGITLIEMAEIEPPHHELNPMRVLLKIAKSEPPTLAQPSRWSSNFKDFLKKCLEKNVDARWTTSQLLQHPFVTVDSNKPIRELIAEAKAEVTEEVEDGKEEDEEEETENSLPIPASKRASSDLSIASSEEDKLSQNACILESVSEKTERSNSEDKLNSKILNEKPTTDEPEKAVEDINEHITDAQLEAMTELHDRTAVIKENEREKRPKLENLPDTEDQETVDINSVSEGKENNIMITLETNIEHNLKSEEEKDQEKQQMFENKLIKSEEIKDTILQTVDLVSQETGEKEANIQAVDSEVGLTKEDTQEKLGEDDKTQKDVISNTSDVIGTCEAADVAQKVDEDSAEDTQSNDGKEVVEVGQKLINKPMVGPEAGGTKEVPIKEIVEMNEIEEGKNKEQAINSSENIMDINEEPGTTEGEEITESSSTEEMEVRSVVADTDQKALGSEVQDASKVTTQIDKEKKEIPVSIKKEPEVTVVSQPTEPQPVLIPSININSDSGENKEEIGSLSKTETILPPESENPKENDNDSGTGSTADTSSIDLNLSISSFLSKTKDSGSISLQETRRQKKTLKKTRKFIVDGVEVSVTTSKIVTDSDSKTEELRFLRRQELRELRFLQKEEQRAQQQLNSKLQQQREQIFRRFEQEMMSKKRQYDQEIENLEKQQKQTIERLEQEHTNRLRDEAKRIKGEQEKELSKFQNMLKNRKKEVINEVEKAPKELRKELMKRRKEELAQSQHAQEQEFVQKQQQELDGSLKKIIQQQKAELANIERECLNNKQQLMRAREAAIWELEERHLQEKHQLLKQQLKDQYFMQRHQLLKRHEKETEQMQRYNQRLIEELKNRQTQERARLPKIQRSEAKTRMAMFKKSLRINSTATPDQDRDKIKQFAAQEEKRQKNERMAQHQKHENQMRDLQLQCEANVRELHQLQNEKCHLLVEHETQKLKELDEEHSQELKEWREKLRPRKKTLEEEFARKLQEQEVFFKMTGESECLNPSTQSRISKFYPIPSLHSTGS
Chain of STK32C (human) (Q86UX6 whole entry, looked up): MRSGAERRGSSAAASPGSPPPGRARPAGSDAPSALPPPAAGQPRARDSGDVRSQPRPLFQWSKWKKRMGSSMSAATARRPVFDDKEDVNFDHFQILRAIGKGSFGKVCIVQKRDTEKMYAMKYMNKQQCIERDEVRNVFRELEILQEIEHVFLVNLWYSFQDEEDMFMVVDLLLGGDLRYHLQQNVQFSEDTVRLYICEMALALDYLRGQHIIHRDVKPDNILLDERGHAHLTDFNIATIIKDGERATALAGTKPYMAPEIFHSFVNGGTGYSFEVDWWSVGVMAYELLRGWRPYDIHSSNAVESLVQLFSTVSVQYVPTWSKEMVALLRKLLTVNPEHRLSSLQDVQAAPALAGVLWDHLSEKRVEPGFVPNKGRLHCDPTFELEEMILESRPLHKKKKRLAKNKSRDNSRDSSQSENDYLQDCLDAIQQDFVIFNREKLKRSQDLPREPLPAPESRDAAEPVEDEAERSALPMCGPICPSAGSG
Chain of PAK7 (human) (Q9P286 whole entry, looked up): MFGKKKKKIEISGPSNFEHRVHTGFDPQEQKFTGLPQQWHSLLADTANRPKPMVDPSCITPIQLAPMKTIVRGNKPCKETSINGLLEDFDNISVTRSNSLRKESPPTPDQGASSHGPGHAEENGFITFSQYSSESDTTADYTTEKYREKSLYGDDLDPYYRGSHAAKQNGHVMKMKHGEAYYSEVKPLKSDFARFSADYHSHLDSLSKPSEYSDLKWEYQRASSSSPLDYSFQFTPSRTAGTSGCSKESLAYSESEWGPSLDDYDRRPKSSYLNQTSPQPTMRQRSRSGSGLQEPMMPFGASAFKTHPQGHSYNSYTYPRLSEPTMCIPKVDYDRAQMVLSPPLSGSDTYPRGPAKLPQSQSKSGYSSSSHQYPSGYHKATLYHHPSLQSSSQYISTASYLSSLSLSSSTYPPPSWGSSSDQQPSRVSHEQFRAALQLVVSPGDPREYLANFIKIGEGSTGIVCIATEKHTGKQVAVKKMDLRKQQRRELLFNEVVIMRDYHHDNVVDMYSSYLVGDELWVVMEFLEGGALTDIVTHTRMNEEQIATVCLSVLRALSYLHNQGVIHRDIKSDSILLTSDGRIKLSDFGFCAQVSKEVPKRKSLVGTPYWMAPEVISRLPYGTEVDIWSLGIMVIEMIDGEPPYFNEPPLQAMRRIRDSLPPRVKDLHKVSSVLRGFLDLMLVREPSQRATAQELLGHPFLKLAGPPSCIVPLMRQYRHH
Chain of MAPKAPK5 (human) (Q8IW41 whole entry, looked up): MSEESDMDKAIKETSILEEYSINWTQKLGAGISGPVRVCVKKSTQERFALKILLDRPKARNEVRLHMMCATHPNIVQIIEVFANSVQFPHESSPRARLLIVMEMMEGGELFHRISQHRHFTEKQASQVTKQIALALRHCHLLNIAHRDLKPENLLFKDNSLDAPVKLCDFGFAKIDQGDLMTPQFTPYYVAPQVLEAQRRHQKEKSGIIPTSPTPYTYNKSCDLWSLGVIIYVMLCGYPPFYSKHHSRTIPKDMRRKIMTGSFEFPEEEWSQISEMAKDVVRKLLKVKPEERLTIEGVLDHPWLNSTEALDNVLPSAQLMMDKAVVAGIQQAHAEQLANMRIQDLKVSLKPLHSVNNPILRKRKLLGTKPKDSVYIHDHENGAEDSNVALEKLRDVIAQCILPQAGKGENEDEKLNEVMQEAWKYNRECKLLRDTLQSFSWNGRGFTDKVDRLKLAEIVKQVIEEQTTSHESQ
Chain of STK4 (human) (Q13043 whole entry, looked up): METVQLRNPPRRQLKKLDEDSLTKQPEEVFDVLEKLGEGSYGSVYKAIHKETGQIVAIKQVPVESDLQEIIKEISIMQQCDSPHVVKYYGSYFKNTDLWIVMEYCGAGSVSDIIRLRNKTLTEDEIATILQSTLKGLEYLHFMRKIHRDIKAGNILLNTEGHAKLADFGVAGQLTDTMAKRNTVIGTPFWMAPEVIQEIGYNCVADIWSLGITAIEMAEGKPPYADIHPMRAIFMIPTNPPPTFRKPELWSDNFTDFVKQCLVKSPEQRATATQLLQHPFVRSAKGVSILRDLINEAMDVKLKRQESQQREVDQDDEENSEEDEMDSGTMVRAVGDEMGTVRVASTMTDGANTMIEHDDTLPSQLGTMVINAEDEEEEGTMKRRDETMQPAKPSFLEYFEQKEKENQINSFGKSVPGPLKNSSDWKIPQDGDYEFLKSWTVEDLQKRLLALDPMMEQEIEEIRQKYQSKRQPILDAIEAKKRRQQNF

SMILES | kinase still bound, per cent of control (CSNK1G3 (human)) | kinase still bound, per cent of control (PAK7 (human)) | kinase still bound, per cent of control (STK32C (human)) | kinase still bound, per cent of control (AURKC (human)) | kinase still bound, per cent of control (MERTK (human)) | kinase still bound, per cent of control (CLK3 (human)) | kinase still bound, per cent of control (LIMK1 (human)) | kinase still bound, per cent of control (CAMK2D (human)) | kinase still bound, per cent of control (CLK1 (human)) | kinase still bound, per cent of control (STK4 (human)) | kinase still bound, per cent of control (PIK3CD (human)) | kinase still bound, per cent of control (SLK (human)) | kinase still bound, per cent of control (RPS6KA4 KD2 (human)) | kinase still bound, per cent of control (MYLK2 (human)) | kinase still bound, per cent of control (CAMK1D (human)) | kinase still bound, per cent of control (CSNK1D (human)) | kinase still bound, per cent of control (FYN (human)) | kinase still bound, per cent of control (LYN (human)) | kinase still bound, per cent of control (ADCK3 (human)) | kinase still bound, per cent of control (PDGFRA (human)) | also measured
N#Cc1c(NC(=O)c2cccc3ccccc23)sc2c1CCCC2 | 68% | 100% | 97% | 87% | 100% | 72% | 76% | 93% | 69% | 94% | 100% | 82% | 100% | 100% | 85% | 100% | 63% | 78% | 100% | 89% | kinase still bound, per cent of control (MAPKAPK5 (human)): 100%; kinase still bound, per cent of control (CSK (human)): 95%; kinase still bound, per cent of control (CAMK2G (human)): 94%; kinase still bound, per cent of control (NEK9 (human)): 70%; kinase still bound, per cent of control (INSRR (human)): 100%; kinase still bound, per cent of control (EPHA8 (human)): 79%; kinase still bound, per cent of control (CDK9 (human)): 83%; kinase still bound, per cent of control (NUAK1 (human)): 77%; kinase still bound, per cent of control (MAPK11 (human)): 100%; kinase still bound, per cent of control (CSNK1G2 (human)): 57%; kinase still bound, per cent of control (MYO3B (human)): 88%; kinase still bound, per cent of control (MAPK12 (human)): 82%; kinase still bound, per cent of control (DCLK3 (human)): 100%; kinase still bound, per cent of control (MAPK8 (human)): 60%; kinase still bound, per cent of control (MELK (human)): 85%; kinase still bound, per cent of control (MARK3 (human)): 89%; kinase still bound, per cent of control (TLK2 (human)): 100%; kinase still bound, per cent of control (BMPR2 (human)): 100%; kinase still bound, per cent of control (INSR (human)): 100%; kinase still bound, per cent of control (PAK6 (human)): 88%
C=CC(=O)Nc1cccc(Nc2nc(N[C@H]3CC[C@H](N(C)C)CC3)nc3c2ncn3C(C)C)c1 | 8.2% | 17% | 98% | 69% | 16% | 9% | 100% | 53% | 1% | 78% | 92% | 26% | 52% | 90% | 67% | 0.75% | 23% | 50% | 87% | 59% | kinase still bound, per cent of control (MAPKAPK5 (human)): 87%; kinase still bound, per cent of control (CSK (human)): 90%; kinase still bound, per cent of control (CAMK2G (human)): 76%; kinase still bound, per cent of control (NEK9 (human)): 100%; kinase still bound, per cent of control (INSRR (human)): 64%; kinase still bound, per cent of control (EPHA8 (human)): 100%; kinase still bound, per cent of control (CDK9 (human)): 100%; kinase still bound, per cent of control (NUAK1 (human)): 93%; kinase still bound, per cent of control (MAPK11 (human)): 89%; kinase still bound, per cent of control (CSNK1G2 (human)): 7.9%; kinase still bound, per cent of control (MYO3B (human)): 100%; kinase still bound, per cent of control (MAPK12 (human)): 96%; kinase still bound, per cent of control (DCLK3 (human)): 86%; kinase still bound, per cent of control (MAPK8 (human)): 100%; kinase still bound, per cent of control (MELK (human)): 25%; kinase still bound, per cent of control (MARK3 (human)): 81%; kinase still bound, per cent of control (TLK2 (human)): 100%; kinase still bound, per cent of control (BMPR2 (human)): 79%; kinase still bound, per cent of control (INSR (human)): 69%; kinase still bound, per cent of control (PAK6 (human)): 47%
